Data reported in the supplement of paper PMC10307832.

Key:
Experiment in all cases: relative viability (nuclei count vs DMSO), 5 days (fraction); higher = more cells survive
CAP-232 + Trametinib = compound: C[C@H]([C@@H](C(=O)N)NC(=O)[C@@H]1CSSC[C@@H](C(=O)N[C@H](C(=O)N[C@@H](C(=O)N[C@H](C(=O)N1)CCCCN)CC2=CNC3=CC=CC=C32)CC4=CC=C(C=C4)O)NC(=O)[C@@H](CC5=CC=CC=C5)N)O [CAP-232] + CC(=O)Nc1cccc(-n2c(=O)n(C3CC3)c(=O)c3c(Nc4ccc(I)cc4F)n(C)c(=O)c(C)c32)c1 [Trametinib] (partner 0.02 µM)
In short: (§1)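 Relative viability was taken as the ratio of nuclei in treated wells to nuclei in vehicle wells. Lung cancer cell lines in 1536-well plates received compounds by pin tool one day after seeding, either one drug alone or a fixed anchor-drug dose plus five library-drug doses (not always all listed) in √10 steps. Nuclei were counted on 4× images after 5 days of treatment, and values are medians of duplicate plates.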

CAP-232 + Olaparib = compound: C[C@H]([C@@H](C(=O)N)NC(=O)[C@@H]1CSSC[C@@H](C(=O)N[C@H](C(=O)N[C@@H](C(=O)N[C@H](C(=O)N1)CCCCN)CC2=CNC3=CC=CC=C32)CC4=CC=C(C=C4)O)NC(=O)[C@@H](CC5=CC=CC=C5)N)O [CAP-232] + O=C(c1cc(Cc2n[nH]c(=O)c3ccccc23)ccc1F)N1CCN(C(=O)C2CC2)CC1 [Olaparib] (partner 8 µM)
In short: as §1

CAP-232 + Crizotinib = compound: C[C@H]([C@@H](C(=O)N)NC(=O)[C@@H]1CSSC[C@@H](C(=O)N[C@H](C(=O)N[C@@H](C(=O)N[C@H](C(=O)N1)CCCCN)CC2=CNC3=CC=CC=C32)CC4=CC=C(C=C4)O)NC(=O)[C@@H](CC5=CC=CC=C5)N)O [CAP-232] + C[C@@H](Oc1cc(-c2cnn(C3CCNCC3)c2)cnc1N)c1c(Cl)ccc(F)c1Cl [Crizotinib] (partner 1 µM)
In short: as §1

CAP-232 + Linsitinib = compound: C[C@H]([C@@H](C(=O)N)NC(=O)[C@@H]1CSSC[C@@H](C(=O)N[C@H](C(=O)N[C@@H](C(=O)N[C@H](C(=O)N1)CCCCN)CC2=CNC3=CC=CC=C32)CC4=CC=C(C=C4)O)NC(=O)[C@@H](CC5=CC=CC=C5)N)O [CAP-232] + C[C@]1(O)C[C@@H](c2nc(-c3ccc4ccc(-c5ccccc5)nc4c3)c3c(N)nccn32)C1 [Linsitinib] (partner 1 µM)
In short: as §1

CAP-232 + Pemetrexed = compound: C[C@H]([C@@H](C(=O)N)NC(=O)[C@@H]1CSSC[C@@H](C(=O)N[C@H](C(=O)N[C@@H](C(=O)N[C@H](C(=O)N1)CCCCN)CC2=CNC3=CC=CC=C32)CC4=CC=C(C=C4)O)NC(=O)[C@@H](CC5=CC=CC=C5)N)O [CAP-232] + Nc1nc2[nH]cc(CCc3ccc(C(=O)N[C@@H](CCC(=O)O)C(=O)O)cc3)c2c(=O)[nH]1 [Pemetrexed] (partner 0.2 µM)
In short: as §1

Cell Line	relative viability (CAP-232 + Trametinib; first compound 0.4 µM)	relative viability (CAP-232 + Trametinib; first compound 1.265 µM)	relative viability (CAP-232 + Trametinib; first compound 4 µM)	relative viability (CAP-232 + Trametinib; first compound 12.65 µM)	relative viability (CAP-232 + Olaparib; first compound 0.4 µM)	relative viability (CAP-232 + Olaparib; first compound 1.265 µM)	relative viability (CAP-232 + Olaparib; first compound 4 µM)	relative viability (CAP-232 + Olaparib; first compound 12.65 µM)	relative viability (CAP-232 + Crizotinib; first compound 0.4 µM)	relative viability (CAP-232 + Crizotinib; first compound 1.265 µM)	relative viability (CAP-232 + Crizotinib; first compound 4 µM)	relative viability (CAP-232 + Crizotinib; first compound 12.65 µM)	relative viability (CAP-232 + Linsitinib; first compound 0.4 µM)	relative viability (CAP-232 + Linsitinib; first compound 1.265 µM)	relative viability (CAP-232 + Linsitinib; first compound 4 µM)	relative viability (CAP-232 + Linsitinib; first compound 12.65 µM)	relative viability (CAP-232 + Pemetrexed; first compound 0.4 µM)	relative viability (CAP-232 + Pemetrexed; first compound 1.265 µM)	relative viability (CAP-232 + Pemetrexed; first compound 4 µM)	relative viability (CAP-232 + Pemetrexed; first compound 12.65 µM)
LXF-289	0.657	0.687	0.657	0.713	1.09	1.07	1.12	1.08	0.843	0.803	0.784	0.841	1.05	0.952	0.992	0.983	1.05	0.839	0.904	0.958
NCI-H23	0.339	0.435	0.439	0.28	0.34	0.301	0.306	0.27	0.532	0.444	0.462	0.362	0.5	0.624	0.587	0.543	0.686	0.492	0.746	0.623
NCI-H322M	0.46	0.514	0.497	0.539	0.939	0.746	0.745	0.697	1.01	0.903	0.841	0.778	1.14	0.916	0.941	0.959	0.621	0.645	0.599	0.788
NCI-H358	0.111	0.138	0.13	0.098	0.454	0.677	0.783	0.465	0.435	0.426	0.473	0.511	0.548	0.686	0.796	0.584	0.151	0.171	0.187	0.187
NCI-H441	0.431	0.41	0.479	0.501	0.482	0.551	0.595	0.429	0.711	0.636	0.639	0.734	0.439	0.64	0.699	0.5	0.25	0.234	0.281	0.262
NCI-H460	0.134	0.208	0.165	0.0175	0.515	0.384	0.526	0.332	0.924	1.1	1.05	0.534	0.89	0.865	0.986	0.44	0.0632	0.0566	0.0556	0.0558
NCI-H520	0.559	0.637	0.799	0.521	0.349	0.304	0.321	0.303	0.822	0.66	0.888	0.56	1.06	0.969	1.04	0.563	0.581	0.651	0.673	0.634
